Columns and labels:
[1] = test system: touch-sensitive tendrils of Bryonia dioica; experiment: Tendril coiling of Bryonia dioica shoots; assay type: in vivo; parameters: key to tendril coiling at 500 μm concentration / tendril coiling 100 μm concentration / tendril coiling 10 μm concentration: −: no coiling; +: minor coiling; ++: Considerable coiling; +++: intense coiling; details: for tendril coiling 10 μm concentration / tendril coiling 100 μm concentration / tendril coiling at 500 μm concentration: followed over 20 h
Experimental: Tendril coiling: To test the ability of the conjugates to induce tendril coiling, shoots of Bryonia dioica with the youngest, most well-developed tendrils were cut and immediately placed into vials with the test solution (2 ml) with the indanoyl conjugates (5-1000 μM) or coronatine (5-100 μM) and the extent of coiling was followed over a period of 20 h. The efficacy of the compounds as to their ability to induce tendril coiling was evaluated by the experimentator accordihg to the following scale: […]

[2] = test system: Lima bean Phaseolus lunatus; experiment: Induction of volatile emission in cut Lima bean plantlets (headspace collection, GC-MS); assay type: in vivo; details: for induction of C16 terpenoid TMTT emission / induction of methyl salicylate emission: volatile blend, FIG. 2
Experimental: Plant material: Induction experiments were performed with plantlets of the Lima bean Phaseolus lunatus (Ferry Morse cv. Jackson Wonder Bush). Individual plants were grown from seed in a plastic pot (Ø=5.5 cm) at 23° C. and 80% humidity using daylight fluorescent tubes at ca. 270 μE m^2 st^−1 with a photophase of 14 h. Experiments were conducted with 12-16 day-old seedlings showing two fully developed leaves.
Induction experiments: Plantlets of P. lunatus with two fully developed primary leaves were cut with razor blades and immediately transferred into Eppendorf vials containing a solution of the test-substance in tap water (100 μl). Solutions of the unsubstituted prior art compound indanoyl-L-isoleucine and of 6 -ethyl indanoyl-L-isoleucine methyl ester according to the invention were applied at 10, 100 and 1000 μM. Coronatne was used as a 100 μM aqueous solution. After uptake of the solution, the plantlets were placed into vials with tap water (5 ml) and were enclosed in small desiccators (750 ml) and maintained at 25° C. for 24 h. Control experiments were conducted under identical conditions by placing freshly cut plantlets into tap water. All experiments were carried out in triplicate.
Collection and analysis of headspace volatiles: The volatiles emitted from the pre-treated plants were collected continuously on small charcoal traps (1 mg charcoal, CLSA-Filter, Le Ruisseau de Montbrun, F-09350 Daumazan sur Arize, France) over a period of 24 h using air circulation as described in J. Donath and W. Boland, Phytochemistry 1995, 39, 785-790.
After desorption of the volatiles from the carbon trap with 40 μl of a solution of 1-bromodecane (internal standard, 50 μM) in dichloromethane. The extracts were directly analysed by GC/MS. GC-conditions: Fused-silica capillary (30 m×0.25 mm) coated with DB 5 (0.25 μm). Helium at […] served as carrier gas. Separation of the compounds was achieved under programmed conditions (50° C. for 2 min, then at 10° C. min^−1 to 200° C., finally at 35° C. min^−1 to 280° C.). MS: Finnigan GCQ; GC-interface at 265° C.; scan range 35-450 Da. Individual compounds (peak area) were quantified with respect to the peak area of the internal standard.

[3] = test system: internal level of salicylic acid in plants; experiment: Internal level of salicylic acid in pre-treated plants; assay type: in vivo; details: plants pre-treated with the compound
[4] = in particular in solution; contact with light; cited from earlier work

Compound | tendril coiling 10 μm concentration [1] | tendril coiling 100 μm concentration [1] | tendril coiling at 500 μm concentration [1] | concentration necessary to induce a coiling response ([1]; tendrils of Bryonia dioica) | concentration inducing the coiling reaction (threshold concentration) ([1]; tendrils of Bryonia dioica) | induction of C16 terpenoid TMTT emission [2] | induction of methyl salicylate emission [2] | increase of salicylate (internal level of salicylic acid) [3] | up-regulation of biosynthesis of 4,8-dimethyl-nona-1,3,7-triene (DMNT) ([2]; compared with the unsubstituted prior art compound) | threshold concentration ([2]; induction of volatiles) | fold more active than the prior art compound unsubstituted at the 6-position ([2]; volatile induction, relative to 1-oxo-indanoyl-isoleucine methyl ester) | stability [4]
CC[C@H](C)[C@H](NC(=O)c1cccc2c1CCC2=O)C(=O)OC [1-oxo-indanoyl isoleucine methyl ester, 1-oxo-indanoyl-isoleucine methyl ester] | − | + | ++ | about 1 mM |  |  |  |  |  |  |  | 
CCC1CC1(NC(=O)C1=C[C@H](CC)C[C@@H]2C(=O)CC[C@H]12)C(=O)O (stereo partly drawn) [coronatine] | ++ | +++ | +++ |  | about 2 μM | induced | induced |  |  |  |  | 
CCc1cc2c(c(C(=O)NC(C(=O)OC)C(C)CC)c1)CCC2=O (stereo not drawn) [2-[(6-Ethyl-1-oxo-indane-4-carbonyl)-amino]-3-methyl-pentanoic acid methyl ester] | + | +++ | +++ |  | 20 µM | induced | induced | 8 fold | much more pronounced | less than 10 μM | 30-50 fold | 
6-azido-1-oxo-indanoyl isoleucine derivative |  |  |  |  |  |  |  |  |  |  |  | unstable

— patent publication US20040087655A1, “6-Substituted indanoyl amino acid conjugates as mimics to the biological activity of coronatine” (priority 2001, published 2004)
